{"source": "patent US20250129044A1", "about": "(priority 2021, published 2025)", "data": [{"target": "sodium channel isoforms (Homo sapiens, UniProt P35498)", "format": "cell-based", "details": "area under the sodium current trace, step from −120 mV to 0 mV, HEK cells", "protocol": "The sodium channel isoforms of interest are stably expressed in Human Embryonic Kidney Cells and the currents that flow through those channels in response to a depolarizing voltage clamp step from −120 mV to 0 mV are measured in the presence of increasing concentrations of the chemical agents. The area under the sodium current trace which correlates to the magnitude of sodium flux through the cell membrane is used to quantify the effects on gating of the channels. Other parameters that are measured in the assay include the peak current, time constant of open state inactivation and the voltage dependence of steady state inactivation properties. The concentration responses are used to determine potency of each chemical agents effects on modulating the sodium channel isoform gating. Such techniques are known to those skilled in the art, and may be developed, using current technologies, into low or medium throughput assays for evaluating compounds for their ability to modulate sodium channel behaviour.", "units": {"EC50": "nM"}, "values": [{"smiles": "CN1C[C@H]2CC[C@@H](C1)N2c1ncc(C(=O)Nc2c(-c3cc(F)ccc3F)ccnc2C2CCC(F)(F)CC2)cn1", "note": "[Example 160, N-(2-(4,4-difluorocyclohexyl)-4-(2,5-difluorophenyl)pyridin-3-yl)-2-((1R,5S)-3-methyl-3,8-diazabicyclo[3.2.1]octan-8-yl)pyrimidine-5-carboxamide]", "EC50": "< 1000"}, {"smiles": "O=C(Nc1c(-c2cc(F)ccc2F)ccnc1C1CCC(F)(F)CC1)c1cnc(N2C3CCCC2CC3)nc1", "note": "[Example 165, 2-(8-azabicyclo[3.2.1]octan-8-yl)-N-(2-(4,4-difluorocyclohexyl)-4-(2,5-difluorophenyl)pyridin-3-yl)pyrimidine-5-carboxamide]", "EC50": "< 1000"}, {"smiles": "O=C(Nc1c(-c2cc(F)ccc2F)ccnc1C1CCC(F)(F)CC1)c1cnc(N2CC3CC(C3)C2)nc1", "note": "[Example 166, 2-(3-azabicyclo[3.1.1]heptan-3-yl)-N-(2-(4,4-difluorocyclohexyl)-4-(2,5-difluorophenyl)pyridin-3-yl)pyrimidine-5-carboxamide]", "EC50": "< 1000"}, {"smiles": "O=C(Nc1c(-c2cc(F)ccc2F)ccnc1C1CCC(F)(F)CC1)c1cnc(N2CC3CC(C2)O3)nc1", "note": "[Example 167, 2-(6-oxa-3-azabicyclo[3.1.1]heptan-3-yl)-N-(2-(4,4-difluorocyclohexyl)-4-(2,5-difluorophenyl)pyridin-3-yl)pyrimidine-5-carboxamide]", "EC50": "< 1000"}, {"smiles": "O=C(Nc1c(-c2cc(F)ccc2F)ccnc1C1CCC(F)(F)CC1)c1cnc(N2C3CCC2CC3)nc1", "note": "[Example 177, 2-(7-azabicyclo[2.2.1]heptan-7-yl)-N-(2-(4,4-difluorocyclohexyl)-4-(2,5-difluorophenyl)pyridin-3-yl)pyrimidine-5-carboxamide]", "EC50": "< 1000"}]}]}
